Results on four compounds are retold here after ChEMBL document CHEMBL4680144, “N-thiadiazole-4-hydroxy-2-quinolone-3-carboxamides bearing heteroaromatic rings as novel antibacterial agents: Design, synthesis, biological evaluation and target identification” (Eur J Med Chem, 2020).

Series [1] has as its system Staphylococcus aureus. In words: In vivo antibacterial activity against methicillin resistant Staphylococcus aureus clinical isolate 15-1 infected in kunming mouse assessed as animal survival rate at 9 mg/kg, po administered 6 hrs prior to bacterial infection and at 0 and 6 hrs post infection and measured for 7 days (reference value: 12.5 %). In kind it is functional. The note with it: time 7.0 day.

Series [2] deals with Staphylococcus aureus. In words: In vivo antibacterial activity against methicillin resistant Staphylococcus aureus clinical isolate 15-1 infected in kunming mouse assessed as animal survival rate at 3 mg/kg, po administered 6 hrs prior to bacterial infection and at 0 and 6 hrs post infection and measured for 7 days (reference value: 12.5 %). In kind it is functional. The conditions noted are these: time 7.0 day.

For series [3], the system named is Staphylococcus aureus. In words: Antibacterial activity against wild type methicillin-sensitive Staphylococcus aureus ATCC 29213 assessed as inhibition of bacterial growth incubated for 18 to 24 hrs by broth microdilution method. In kind it is functional. The conditions noted are these: time 18-24 hrs.
Series [4] has as its system Staphylococcus aureus. In words: Antibacterial activity against methicillin-resistant Staphylococcus aureus clinical isolate 15-1 assessed as inhibition of bacterial growth incubated for 18 to 24 hrs by broth microdilution method. In kind it is functional. The conditions noted are these: time 18-24 hrs.
The subject of series [5] is Staphylococcus aureus. In words: Antibacterial activity against methicillin-resistant Staphylococcus aureus clinical isolate 15-2 assessed as inhibition of bacterial growth incubated for 18 to 24 hrs by broth microdilution method. In kind it is functional. The conditions noted are these: time 18-24 hrs.
Series [6] concerns Staphylococcus aureus. Put plainly: Antibacterial activity against methicillin-resistant Staphylococcus aureus clinical isolate 15-3 assessed as inhibition of bacterial growth incubated for 18 to 24 hrs by broth microdilution method. In kind it is functional. The note with it: time 18-24 hrs.
Series [7] relates to Staphylococcus aureus. Put plainly: Antibacterial activity against methicillin-resistant Staphylococcus aureus clinical isolate 15-6 assessed as inhibition of bacterial growth incubated for 18 to 24 hrs by broth microdilution method. In kind it is functional. The note with it: time 18-24 hrs.
Series [8] deals with Staphylococcus aureus. Put plainly: Antibacterial activity against methicillin-resistant Staphylococcus aureus clinical isolate 15-7 assessed as inhibition of bacterial growth incubated for 18 to 24 hrs by broth microdilution method. The conditions noted are these: time 18-24 hrs. In kind it is functional.
In series [9] the test system is Staphylococcus aureus. In words: Antibacterial activity against methicillin-resistant Staphylococcus aureus clinical isolate 15-8 assessed as inhibition of bacterial growth incubated for 18 to 24 hrs by broth microdilution method. In kind it is functional. The note with it: time 18-24 hrs.
The test system of series [10] is Staphylococcus aureus. Put plainly: Antibacterial activity against methicillin-resistant Staphylococcus aureus clinical isolate 15-9 assessed as inhibition of bacterial growth incubated for 18 to 24 hrs by broth microdilution method. In kind it is functional. The conditions noted are these: time 18-24 hrs.
The test system of series [11] is Staphylococcus aureus. In words: Antibacterial activity against methicillin resistant and vancomycin-intermediate sensitive Staphylococcus aureus ATCC 700699 assessed as inhibition of bacterial growth incubated for 18 to 24 hrs by broth microdilution method. In kind it is functional. The conditions noted are these: time 18-24 hrs.
For series [12], the system named is Staphylococcus aureus. In words: Antibacterial activity against methicillin resistant and vancomycin-intermediate sensitive Staphylococcus aureus ATCC 700788 assessed as inhibition of bacterial growth incubated for 18 to 24 hrs by broth microdilution method. The note with it: time 18-24 hrs. In kind it is functional.
Series [13] deals with Staphylococcus epidermidis. Put plainly: Antibacterial activity against methicillin-sensitive Staphylococcus epidermidis clinical isolate 15-3 assessed as inhibition of bacterial growth incubated for 18 to 24 hrs by broth microdilution method. In kind it is functional. The note with it: time 18-24 hrs.
The test system of series [14] is Staphylococcus epidermidis. Put plainly: Antibacterial activity against methicillin-sensitive Staphylococcus epidermidis clinical isolate 15-4 assessed as inhibition of bacterial growth incubated for 18 to 24 hrs by broth microdilution method. In kind it is functional. The note with it: time 18-24 hrs.
The test system of series [15] is Staphylococcus epidermidis. In words: Antibacterial activity against methicillin-resistant Staphylococcus epidermidis clinical isolate 15-1 assessed as inhibition of bacterial growth incubated for 18 to 24 hrs by broth microdilution method. The note with it: time 18-24 hrs. In kind it is functional.
In series [16] the test system is Staphylococcus epidermidis. In words: Antibacterial activity against methicillin-resistant Staphylococcus epidermidis clinical isolate 15-2 assessed as inhibition of bacterial growth incubated for 18 to 24 hrs by broth microdilution method. In kind it is functional. The note with it: time 18-24 hrs.
In series [17] the test system is Staphylococcus epidermidis. Put plainly: Antibacterial activity against methicillin-resistant Staphylococcus epidermidis clinical isolate 15-3 assessed as inhibition of bacterial growth incubated for 18 to 24 hrs by broth microdilution method. In kind it is functional. The conditions noted are these: time 18-24 hrs.
Series [18] concerns Enterococcus faecalis. Put plainly: Antibacterial activity against Enterococcus faecalis clinical isolate 15-1 assessed as inhibition of bacterial growth incubated for 18 to 24 hrs by broth microdilution method. The note with it: time 18-24 hrs. In kind it is functional.
Series [19] concerns Enterococcus faecalis. Put plainly: Antibacterial activity against Enterococcus faecalis clinical isolate 15-2 assessed as inhibition of bacterial growth incubated for 18 to 24 hrs by broth microdilution method. The conditions noted are these: time 18-24 hrs. In kind it is functional.
Series [20] has as its system Enterococcus faecium. Put plainly: Antibacterial activity against Enterococcus faecium clinical isolate 15-1 assessed as inhibition of bacterial growth incubated for 18 to 24 hrs by broth microdilution method. The note with it: time 18-24 hrs. In kind it is functional.
Series [21] relates to Enterococcus faecium. Put plainly: Antibacterial activity against Enterococcus faecium clinical isolate 15-2 assessed as inhibition of bacterial growth incubated for 18 to 24 hrs by broth microdilution method. In kind it is functional. The note with it: time 18-24 hrs.
In series [22] the test system is Enterococcus faecalis. In words: Antibacterial activity against vancomycin-resistant Enterococcus faecalis ATCC 51299 assessed as inhibition of bacterial growth incubated for 18 to 24 hrs by broth microdilution method. In kind it is functional. The note with it: time 18-24 hrs.
Series [23] has as its system Enterococcus faecalis. Put plainly: Antibacterial activity against vancomycin-resistant Enterococcus faecalis ATCC 700802 assessed as inhibition of bacterial growth incubated for 18 to 24 hrs by broth microdilution method. In kind it is functional. The conditions noted are these: time 18-24 hrs.
The test system of series [24] is Enterococcus faecalis. Put plainly: Antibacterial activity against vancomycin-resistant Enterococcus faecalis ATCC 51575 assessed as inhibition of bacterial growth incubated for 18 to 24 hrs by broth microdilution method. In kind it is functional. The note with it: time 18-24 hrs.
A further series deals with HepG2. In words: Cytotoxicity against human HepG2 cells assessed as reduction in cell viability after 72 hrs by sulforhodamine B assay. In kind it is cell-based. The conditions noted are these: HepG2, 72 h.
A further series deals with HUVEC. Put plainly: Cytotoxicity against HUVEC assessed as reduction in cell viability after 72 hrs by sulforhodamine B assay. In kind it is cell-based. The note with it: Homo sapiens.
Series [25] in a line: Selectivity index, ratio of IC50 for human HepG2 cells to MIC for methicillin-resistant Staphylococcus aureus. In kind it is toxicity.
Series [26] is described as follows: Selectivity index, ratio of IC50 for human HUVEC cells to MIC for methicillin-resistant Staphylococcus aureus. In kind it is toxicity.
Series [27] in a line: Inhibition of Staphylococcus aureus Gyrase B using linear pBR322 DNA as substrate incubated for 30 mins in presence of ATP by ADP-Glo assay.

In brackets after ≈: the same amount, converted by molar mass. Activity calls are given as the source filed them. The calls are words filed in the database; no cut-off is given here.

As to `CC(=O)NC[C@H]1CN(c2ccc(N3CCOCC3)c(F)c2)C(=O)O1`, the result with Staphylococcus aureus [1] and in the series with Staphylococcus aureus [2] was Active.
As for `CCCCCc1nnc(NC(=O)c2c(O)c3ccccc3n(CC)c2=O)s1`, the MIC turned out to be 0.1 µg/mL (≈ 0.259 µM) in the series on Staphylococcus aureus [3]; 0.5 µg/mL (≈ 1.29 µM) with Staphylococcus aureus [4]; 1 µg/mL (≈ 2.59 µM) with Staphylococcus aureus [5]; 0.5 µg/mL (≈ 1.29 µM) with Staphylococcus aureus [6]; 0.5 µg/mL (≈ 1.29 µM) in the series with Staphylococcus aureus [7]; 0.5 µg/mL (≈ 1.29 µM) in the series with Staphylococcus aureus [8]. Further, the MIC in the series on Staphylococcus aureus [9] amounted to 0.5 µg/mL (≈ 1.29 µM); in the series with Staphylococcus aureus [10] it was 1 µg/mL (≈ 2.59 µM); with Staphylococcus aureus [11] it was 1 µg/mL (≈ 2.59 µM); with Staphylococcus aureus [12], 1 µg/mL (≈ 2.59 µM); in series [13], 1 µg/mL (≈ 2.59 µM); in series [14], 1 µg/mL (≈ 2.59 µM). The MIC in series [15] is 1 µg/mL (≈ 2.59 µM); in series [16] it was 1 µg/mL (≈ 2.59 µM); in series [17], 1 µg/mL (≈ 2.59 µM); with Enterococcus faecalis [18] it was 2 µg/mL (≈ 5.17 µM); in the series on Enterococcus faecalis [19] it was 1 µg/mL (≈ 2.59 µM); in the series on Enterococcus faecium [20], 1 µg/mL (≈ 2.59 µM). The minimal inhibitory concentration (MIC) in the series on Enterococcus faecium [21], in the series with Enterococcus faecalis [22], in the series with Enterococcus faecalis [23] and with Enterococcus faecalis [24] was 1 µg/mL (≈ 2.59 µM) each time. Besides, the IC50 was found to be 52.1 µM with HepG2, 41.9 µM with HUVEC and 0.47 µM in series [27]. In addition, the results for the selectivity ratio in series [25] and in series [26] were 52.1 and 41.9, respectively.
For the compound `CCn1c(=O)c(C(=O)Nc2nnc(-c3ccccc3)s2)c(O)c2ccccc21`, the MIC in the series on Staphylococcus aureus [3] is 0.39 µg/mL (≈ 0.994 µM); in the series with Staphylococcus aureus [4], 2 µg/mL (≈ 5.1 µM); in the series on Staphylococcus aureus [5], 2 µg/mL (≈ 5.1 µM); with Staphylococcus aureus [6], 1 µg/mL (≈ 2.55 µM); in the series with Staphylococcus aureus [7], 0.5 µg/mL (≈ 1.27 µM); in the series with Staphylococcus aureus [8], 1 µg/mL (≈ 2.55 µM). For the same compound, the minimal inhibitory concentration (MIC) in the series with Staphylococcus aureus [9] stood at 0.5 µg/mL (≈ 1.27 µM); in the series with Staphylococcus aureus [10], 0.25 µg/mL (≈ 0.637 µM); in the series with Staphylococcus aureus [11] it was 2 µg/mL (≈ 5.1 µM); with Staphylococcus aureus [12], 2 µg/mL (≈ 5.1 µM); in [13] it was 1 µg/mL (≈ 2.55 µM); in [14], 1 µg/mL (≈ 2.55 µM). The minimal inhibitory concentration (MIC) (in series [15]; in [16]; in [17]; with Enterococcus faecalis [18]; in the series with Enterococcus faecalis [19]; with Enterococcus faecium [20]) was 1 µg/mL (≈ 2.55 µM) in each case. The MIC in the series with Enterococcus faecium [21] came out at 2 µg/mL (≈ 5.1 µM); in the series on Enterococcus faecalis [22] it was 1 µg/mL (≈ 2.55 µM); in the series on Enterococcus faecalis [23], 1 µg/mL (≈ 2.55 µM); in the series with Enterococcus faecalis [24], 1 µg/mL (≈ 2.55 µM). Also, the IC50 in series [27] worked out at 1.72 µM.
Turning to `CCn1c(=O)c(C(=O)Nc2nnc(-c3ccccn3)s2)c(O)c2ccccc21`, the minimum inhibitory concentration (MIC) in the series with Staphylococcus aureus [3] turned out to be 0.1 µg/mL (≈ 0.254 µM); with Staphylococcus aureus [4], 0.5 µg/mL (≈ 1.27 µM); in the series on Staphylococcus aureus [5], 1 µg/mL (≈ 2.54 µM); with Staphylococcus aureus [6] it was 0.5 µg/mL (≈ 1.27 µM); with Staphylococcus aureus [7] it was 0.5 µg/mL (≈ 1.27 µM); in the series on Staphylococcus aureus [8], 1 µg/mL (≈ 2.54 µM). The MIC in the series with Staphylococcus aureus [9] worked out at 0.5 µg/mL (≈ 1.27 µM); in the series with Staphylococcus aureus [10] it was 1 µg/mL (≈ 2.54 µM); with Staphylococcus aureus [11], 0.5 µg/mL (≈ 1.27 µM); with Staphylococcus aureus [12] it was 0.5 µg/mL (≈ 1.27 µM); in [13], 1 µg/mL (≈ 2.54 µM); in [14], 1 µg/mL (≈ 2.54 µM). In addition, the MIC (in series [15]; in series [16]; in series [17]; with Enterococcus faecalis [18]; in the series with Enterococcus faecalis [19]; in the series with Enterococcus faecium [20]) was 1 µg/mL (≈ 2.54 µM) in each case. In addition, the MIC in the series with Enterococcus faecium [21], in the series with Enterococcus faecalis [22], in the series with Enterococcus faecalis [23] and in the series with Enterococcus faecalis [24] was 1 µg/mL (≈ 2.54 µM) in each case. Besides, the 50% inhibitory concentration (IC50) with HepG2 turned out to be 63.2 µM; in the series on HUVEC it was 26.5 µM; in series [27], 0.42 µM. The selectivity ratio in [25] was determined as 63.2; in series [26] it was 26.5.
